Data from paper PMC12288536, “Development of an atrazine immunoassay based on highly catalytically active Au@PtNPs and specific nanobody” (Research Square, 2025).

Assays:
Au@PtNPs-nanobody probe = assay: dc-ELISA based on Au@PtNPs-nanobody probe (direct competitive), incl. matrix effect evaluation; format: binding, alpaca; conditions: for CR% (Au@PtNPs-nanobody): cross-reaction = IC50(atrazine)/IC50(analog); for IC50 (Au@PtNPs-nanobody): optimal conditions, 1×PBS containing 5% methanol
Experimental: The sodium chloride interference method was used to determine the optimal conditions for coupling. Adjust the Au@PtNPs-145 nm (10 mL) to the optimal pH with 0.1 M K2CO3, then the optimal amount of nanobody and BSA (0.1 g) were added dropwise to the solution and stirred for 30 minutes. PEG20000 (0.05 g) was then added to the above solution and incubated at 4°C overnight after stirring for 30 minutes. The probe was purified by fractionation and centrifugation at 4°C, and the precipitate was collected and re-dissolved in 1 mL of probe diluent (pH 7.2, PBS buffer containing 1% sucrose, 0.1% BSA, 0.1% Tween 20 and 0.1% alginate) at 4°C for storage and further use.
Au@PtNPs-nanobody was used to develop a new dc-ELISA, and the optimal concentrations of probe and coating antigen were confirmed by the checkerboard method, and the sensitivity of dc-ELISA was evaluated under optimal conditions. The cross-reactivity of the dc-ELISA to atrazine analogs was also evaluated to compare with the specificity of ic-ELISA.
Tap water, river water and soil without atrazine were selected as samples for the evaluation of matrix effects. The effect of tap water, river water and soil on the sensitivity of the detection method was evaluated using two newly developed immunoassay methods based on Au@PtNPs-nanobody. The accuracy of the developed method for real samples was also verified using high performance liquid chromatography (HPLC). The solid sample (10 g) was simultaneously extracted with 20 ml of methanol in a vortex mixer for 15 minutes. The mixture was then centrifuged at 4000 rpm for 5 minutes and the supernatant was collected, diluted appropriately and analyzed by HPLC. After confirming that the samples were free of atrazine, atrazine solution was added to the samples so that the final concentrations of atrazine in the samples were 1 μg/mL, 5 μg/mL, and 10 μg/mL, and then the samples were subjected to dc-ELISA. HPLC was also used for validation.
Considering the real samples detection, complex matrix can affect the recognition and binding between antibodies and coating antigens/analytes, which seriously interferes with the performance of the immunoassay and affects the accuracy of the analytical results. Therefore, matrix effects should be minimized or eliminated during sample analysis to ensure the accuracy of the immunoassay method. The simplest method for matrix elimination or reduction is to dilute the sample with the assay buffer. In this study, tap water, river water and soil were selected for matrix effect evaluation. The tap water samples confirmed to be none of atrazine were diluted directly with 1×PBS to a total dilution ratio of 2-, 4-, 8-, and 16-fold, and then different concentrations of atrazine solution were prepared with these obtained buffer solutions, respectively. […] But, tap water samples diluted […] had higher IC50 when compared with assay buffer or other diluted samples. […] Therefore, the 4-fold dilution was selected for the tap water samples. Similarly, river water samples diluted 4-fold and 8-fold had higher IC50 values compared to assay buffer or other diluted samples. […] Therefore, 16-fold dilution was selected for the river water sample (Fig. 4C). Soil samples without atrazine were used as blank samples and extracted with methanol, then diluted with 1×PBS resulting in a total dilution ratio of 10, 20, 40, 60 and 80-fold. Atrazine standard solutions were prepared using the above obtained buffer solutions. […] When the soil matrix was diluted 60 and 80-fold, there was no significant difference between their maximum absorbance and IC50 . Therefore, the 60-fold dilution was selected for the next spike and recovery study. Spiked-recovery validation using both HPLC and dc-ELISA to evaluate the precision of the dc-ELISA. […] Also, the results of the dc-ELISA method were approximately consistent with that of HPLC.

Nanobody-26 = assay: ic-ELISA based on atrazine nanobody (indirect competitive); format: binding, alpaca; conditions: for IC50 (Nanobody): coating antigen 2e-BSA; for CR% (Nanobody): cross-reaction = IC50(atrazine)/IC50(analog)
Experimental: In this study, ic-ELISA was first used to assess the effect of two coating antigens on the sensitivity of the nanobody. The optimal concentrations of nanobody and coating antigen were confirmed by the checkerboard method, and the sensitivity of nanobody was evaluated under optimal conditions. Detailed procedures for sensitivity assessment of nanobody were presented in the Supplementary Material.
Cross-reactivity evaluation was performed using the developed ic-ELISA for atrazine, simazine, terbuthylazine, terbutryn, cyanuric acid, ametryn, melamine, atrazine-2-hydroxy and 2-chloro-4,6-diamino-1,3,5-triazine. The above compounds were prepared into standard solutions at certain concentrations, and the standard inhibition curves were established. The cross-reactions were calculated according to the respective IC50 obtained from the standard inhibition curves and the following formula: Cross-reaction(CR%)=IC50(atrazine)∕IC50(the other structurally similar compound)

Compound | CR% (Au@PtNPs-nanobody) (Au@PtNPs-nanobody probe) | IC50 (Au@PtNPs-nanobody) (Au@PtNPs-nanobody probe) [µg/mL] | IC50 (Nanobody) (Nanobody-26) [µg/mL] | CR% (Nanobody) (Nanobody-26) [%] | CR% (Nanobody) (Nanobody-26; listed as ametryn) | CR% (Au@PtNPs-nanobody) (Au@PtNPs-nanobody probe; listed as simazine) | CR% (Nanobody) (Nanobody-26; listed as simazine) | CR% (Au@PtNPs-nanobody) (Au@PtNPs-nanobody probe; listed as terbutryn) | CR% (Nanobody) (Nanobody-26; listed as terbutryn)
CCNc1nc(NC(C)C)nc(SC)n1 [Ametryn] | 3.55% | 0.90 | 0.23 | 27.4 | about 30% | – | – | – | –
CCNc1nc(Cl)nc(NC(C)(C)C)n1 [Terbuthylazine] | 10.9% | 0.29 | 0.085 | 72.7 | – | – | – | – | –
CCNc1nc(N)nc(Cl)n1 [deisopropylatrazine] | less than 7% | – | – | – | – | – | – | – | –
Nc1nc(N)nc(Cl)n1 [2-chloro-4,6-diamino-1,3,5-triazine] | 3.42% | 0.93 | 1.1 | 5.40 | – | – | – | – | –
Nc1nc(N)nc(N)n1 [Melamine] | < 0.1% | > 100 | > 100 | < 0.1 | – | – | – | – | –
CCNc1nc(NC(C)C)[nH]c(=O)n1 [Atrazine-2-hydroxy] | < 0.1% | > 100 | > 100 | < 0.1 | – | – | – | – | –
CCNc1nc(Cl)nc(NCC)n1 [Simazine] | 6.01% | 0.53 | 0.18 | 33.6 | – | less than 7% | about 30% | – | –
CCNc1nc(Cl)nc(NC(C)C)n1 [Atrazine] | 100% | 0.032 | 0.062 | 100 | – | – | – | – | –
Oc1nc(O)nc(O)n1 [Cyanuric acid] | < 0.1% | > 100 | > 100 | < 0.1 | – | – | – | – | –
CCNc1nc(NC(C)(C)C)nc(SC)n1 [Terbutryn] | < 0.1% | > 100 | > 100 | < 0.1 | – | – | – | greater than 10% | greater than 70%
